Test results taken from patent US9580430B2, “9H-pyrimido[4,5-B]indoles and related analogs as BET bromodomain inhibitors” (THE REGENTS OF THE UNIVERSITY OF MICHIGAN, priority 2014, dated 2017).

Tests used:
[1] = test system: MOLM-13; test: Cell growth inhibition, MOLM-13 leukemia cells (CellTiter-Glo); format: cell-based; conditions: Homo sapiens, MOLM-13, 96 h; 4 days; read-out: IC50 (nM) MOLM-13 Cell Line (CellTiter-Glo assay)
Summary of the method: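 Luminescent ATP-based viability (CellTiter-Glo, 10-20 min at room temperature) in compound-treated MOLM-13 cells; the half-maximal inhibitory concentration was calculated from the readout.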

[2] = target: T1, recombinant BRD4 BD1 (Homo sapiens, UniProt O60885); test: Competitive fluorescence-polarization (FP) binding assay, BRD4 BD1; conditions: competitive FP assay; protein 10 nM, probe […]; read-out: IC50 (nM) BRD4 BD1; further: probe 1.5 nM
T1 construct: for recombinant BRD4 BD1 and BRD4 BD2 proteins
Summary of the method: (§1)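 Buffer: 100 mM potassium phosphate, pH 6.5, 0.01% Triton X-100; compounds added in buffer with 40% ethylene glycol to preformed complex of fluorescent probe with BRD4 BD1 (10 nM final) or BD2 (6 nM final). After 30 min at room temperature, polarization read. IC50 from nonlinear fits of competition curves, with Ki.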

[3] = test system: MDA-MB-436; test: Cell growth inhibition, MDA-MB-436 breast cancer cells (WST-8); format: cell-based; conditions: Homo sapiens, MDA-MB-436, 96 h; 4 days; read-out: IC50 (nM) MDA-MB-436 Cell Line (WST assay)
Summary of the method: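 IC50 was computed from WST-8-based cell counting in MDA-MB-436 cells, with absorbance read at 450 nm.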

[4] = target: T2, recombinant BRD4 BD2 (Homo sapiens, UniProt O60885); test: Competitive fluorescence-polarization (FP) binding assay, BRD4 BD2; conditions: competitive FP assay; protein 6 nM, probe […]; read-out: IC50 (nM) BRD4 BD2; further: probe 1.5 nM
T2 construct: for recombinant BRD4 BD1 and BRD4 BD2 proteins
Summary of the method: as §1

| IC50 [1] [nM] | IC50 [2] [nM] | IC50 [3] [nM] | IC50 [4] [nM] | SMILES |
| --- | --- | --- | --- | --- |
| 17.7 | 4.2 | 25 | 3.4 | COc1cc2c(cc1-c1c(C)noc1C)[nH]c1nc(C)nc(Nc3cc(C)nn3C3CCCC3)c12 [Cpd. No. 118, N-(1-Cyclopentyl-3-methyl-1H-pyrazol-5-yl)-7-(3,5-dimethylisoxazol-4-yl)-6-methoxy-2-methyl-9H-pyrimido[4,5-b]indol-4-amine] |
| 38.8 | 11.4 | 26 | 10.6 | COc1cc2c(cc1-c1c(C)noc1C)[nH]c1nc(C)nc(Nc3cc(C)nn3C3CCC3)c12 [Cpd. No. 119, N-(1-Cyclobutyl-3-methyl-1H-pyrazol-5-yl)-7-(3,5-dimethylisoxazol-4-yl)-6-methoxy-2-methyl-9H-pyrimido[4,5-b]indol-4-amine] |
| 23 | 9.6 | 23.5 | 5.8 | COc1cc2c(cc1-c1c(C)noc1C)[nH]c1nc(C)nc(Nc3cc(C(C)(C)C)nn3C)c12 [Cpd. No. 120, N-(3-tert-Butyl-1-methyl-1H-pyrazol-5-yl)-7-(3,5-dimethylisoxazol-4-yl)-6-methoxy-2-methyl-9H-pyrimido[4,5-b]indol-4-amine] |
| 11.7 | 1.6 | 11.2 | 3.2 | COc1cc2c(cc1-c1c(C)noc1C)[nH]c1nc(C)nc(Nc3cc(C4CC4)nn3C)c12 [Cpd. No. 121, N-(3-Cyclopropyl-1-methyl-1H-pyrazol-5-yl)-7-(3,5-dimethylisoxazol-4-yl)-6-methoxy-2-methyl-9H-pyrimido[4,5-b]indol-4-amine] |
| 6 | 4.3 | 7.8 | 2.3 | COc1cc2c(cc1-c1c(C)noc1C)[nH]c1nc(C)nc(Nc3c4c(nn3C)CCC4)c12 [Cpd. No. 122, 7-(3,5-Dimethylisoxazol-4-yl)-6-methoxy-2-methyl-N-(2-methyl-2,4,5,6-tetrahydrocyclopenta-[c]pyrazol-3-yl)-9H-pyrimido[4,5-b]indol-4-amine] |
| 759 | 257 | 1420 | 483 | COc1cc2c(cc1-c1c(C)noc1C)[nH]c1nc(C)nc(Nc3nn(C)c4cccnc34)c12 [Cpd. No. 123, 7-(3,5-Dimethylisoxazol-4-yl)-6-methoxy-2-methyl-N-(1-methyl-1H-pyrazolo[4,3-b]pyridin-3-yl)-9H-pyrimido[4,5-b]indol-4-amine] |
| 41.9 | 5 | 58.3 | 29.5 | COc1cc2c(cc1-c1c(C)noc1C)[nH]c1nc(C)nc(Nc3nn(C)c4c3CCCC4)c12 [Cpd. No. 124, 7-(3,5-Dimethylisoxazol-4-yl)-6-methoxy-2-methyl-N-(1-methyl-4,5,6,7-tetrahydro-1H-indazol-3-yl)-9H-pyrimido[4,5-b]indol-4-amine] |
| 11.3 | 4.4 | 17.5 | 2 | COc1cc2c(cc1-c1c(C)noc1C)[nH]c1nc(C)nc(Nc3c4c(nn3C)CCCC4)c12 [Cpd. No. 125, 7-(3,5-Dimethylisoxazol-4-yl)-6-methoxy-2-methyl-N-(2-methyl-4,5,6,7-tetrahydro-2H-indazol-3-yl)-9H-pyrimido[4,5-b]indol-4-amine] |
| 65.3 | 11 | 140 | 32.8 | COc1cc2c(cc1-c1c(C)noc1C)[nH]c1nc(C)nc(Nc3cc(C(C)(C)C)n[nH]3)c12 [Cpd. No. 126, N-(3-(tert-Butyl)-1H-pyrazol-5-yl)-7-(3,5-dimethylisoxazol-4-yl)-6-methoxy-2-methyl-9H-pyrimido[4,5-b]indol-4-amine] |
| 144 | 105 | 201 | 202 | COc1cc2c(cc1-c1c(C)noc1C)[nH]c1nc(C)nc(Nc3nn(C)c4c(F)cccc34)c12 [Cpd. No. 129, 7-(3,5-Dimethylisoxazol-4-yl)-N-(7-fluoro-1-methyl-1H-indazol-3-yl)-6-methoxy-2-methyl-9H-pyrimido[4,5-b]indol-4-amine] |
| 32.7 | 9.6 | 97.6 | 51.4 | COc1cc2c(cc1-c1c(C)noc1C)[nH]c1nc(C)nc(Nc3nn(CCO)c4ccccc34)c12 [Cpd. No. 131, 2-(3-((7-(3,5-Dimethylisoxazol-4-yl)-6-methoxy-2-methyl-9H-pyrimido[4,5-b]indol-4-yl)amino)-1H-indazol-1-yl)ethanol] |
| 97.5 | 68.6 | 224 | 718 | COc1cc2c(cc1-c1c(C)noc1C)[nH]c1nc(C)nc(Nc3nn(C)c4cccc(F)c34)c12 [Cpd. No. 132, 7-(3,5-Dimethylisoxazol-4-yl)-N-(4-fluoro-1-methyl-1H-indazol-3-yl)-6-methoxy-2-methyl-9H-pyrimido[4,5-b]indol-4-amine] |
| 433 | > 1000 | 47900 | > 1000 | COc1cc2c(cc1-c1c(C)noc1C)[nH]c1nc(C)nc(Nc3cc(C(C)(C)C)ns3)c12 [Cpd. No. 133, 3-(tert-Butyl)-N-(7-(3,5-dimethylisoxazol-4-yl)-6-methoxy-2-methyl-9H-pyrimido[4,5-b]indol-4-yl)isothiazol-5-amine] |
| 32 | 40.2 | 128 | 30.5 | COc1cc2c(cc1-c1c(C)noc1C)[nH]c1nc(C)nc(Nc3cnn4c3CCC4)c12 [Cpd. No. 134, N-(5,6-Dihydro-4H-pyrrolo[1,2-b]pyrazol-3-yl)-7-(3,5-dimethylisoxazol-4-yl)-6-methoxy-2-methyl-9H-pyrimido[4,5-b]indol-4-amine] |
| 30.2 | 5.6 | 57.6 | 1.3 | COc1cc2c(cc1-c1c(C)noc1C)[nH]c1nc(C)nc(Nc3c(C)cnn3C3CCCC3)c12 [Cpd. No. 135, N-(1-Cyclopentyl-4-methyl-1H-pyrazol-5-yl)-7-(3,5-dimethylisoxazol-4-yl)-6-methoxy-2-methyl-9H-pyrimido[4,5-b]indol-4-amine] |
| 26.6 | 10.5 | 63.2 | 6.9 | COc1cc2c(cc1-c1c(C)noc1C)[nH]c1nc(C)nc(Nc3cc(C4CCC4)nn3C)c12 [Cpd. No. 136, N-(3-Cyclobutyl-1-methyl-1H-pyrazol-5-yl)-7-(3,5-dimethylisoxazol-4-yl)-6-methoxy-2-methyl-9H-pyrimido[4,5-b]indol-4-amine] |
| 5.7 | 4.2 | 30.3 | 1.2 | COc1cc2c(cc1-c1c(C)noc1C)[nH]c1nc(C)nc(Nc3c4c(nn3C(C)C)CCCC4)c12 [Cpd. No. 138, 7-(3,5-Dimethylisoxazol-4-yl)-N-(2-isopropyl-4,5,6,7-tetrahydro-2H-indazol-3-yl)-6-methoxy-2-methyl-9H-pyrimido[4,5-b]indol-4-amine] |
| 49.2 | 16.3 | 110 | 16.5 | COc1cc2c(cc1-c1c(C)noc1C)[nH]c1nc(C)nc(Nc3cnn4c3CCCC4)c12 [Cpd. No. 139, 7-(3,5-Dimethylisoxazol-4-yl)-6-methoxy-2-methyl-N-(4,5,6,7-tetrahydropyrazolo[1,5-a]pyridin-3-yl)-9H-pyrimido[4,5-b]indol-4-amine] |
| 120 | 39.3 | 210 | 95 | COc1cc2c(cc1-c1c(C)noc1C)[nH]c1nc(C)nc(Nc3c(C4CC4)c(C)nn3C)c12 [Cpd. No. 140, N-(4-Cyclopropyl-1,3-dimethyl-1H-pyrazol-5-yl)-7-(3,5-dimethylisoxazol-4-yl)-6-methoxy-2-methyl-9H-pyrimido[4,5-b]indol-4-amine] |
| 1.1 | 4.5 | 7.3 | 0.5 | CCn1nc2c(c1Nc1nc(C)nc3[nH]c4cc(-c5c(C)noc5C)c(OC)cc4c13)CCCC2 [Cpd. No. 142, 7-(3,5-Dimethylisoxazol-4-yl)-N-(2-ethyl-4,5,6,7-tetrahydro-2H-indazol-3-yl)-6-methoxy-2-methyl-9H-pyrimido[4,5-b]indol-4-amine] |
| 98 | 27.9 | 175 | 57.7 | CCn1nc(C)c(C2CC2)c1Nc1nc(C)nc2[nH]c3cc(-c4c(C)noc4C)c(OC)cc3c12 [Cpd. No. 143, N-(4-Cyclopropyl-1-ethyl-3-methyl-1H-pyrazol-5-yl)-7-(3,5-dimethylisoxazol-4-yl)-6-methoxy-2-methyl-9H-pyrimido[4,5-b]indol-4-amine] |
| 69.5 | 18.9 | 170 | 56.9 | CCn1nc(C2CC2)c(C)c1Nc1nc(C)nc2[nH]c3cc(-c4c(C)noc4C)c(OC)cc3c12 [Cpd. No. 145, N-(3-Cyclopropyl-1-ethyl-4-methyl-1H-pyrazol-5-yl)-7-(3,5-dimethylisoxazol-4-yl)-6-methoxy-2-methyl-9H-pyrimido[4,5-b]indol-4-amine] |
| 26 | 13.7 | 39.2 | 7.7 | CCn1nc(C(F)(F)F)cc1Nc1nc(C)nc2[nH]c3cc(-c4c(C)noc4C)c(OC)cc3c12 [Cpd. No. 146, 7-(3,5-Dimethylisoxazol-4-yl)-N-(1-ethyl-3-(trifluoromethyl)-1H-pyrazol-5-yl)-6-methoxy-2-methyl-9H-pyrimido[4,5-b]indol-4-amine] |
